The source of these data is paper PMC5675618, “Identification and validation of FGFR2 peptide for detection of early Barrett's neoplasia” (Oncotarget, 2017).

The test system of this assay is sections of human esophagus ex vivo. Nature of the assay: Confocal microscopy of staining of human esophageal specimens ex vivo (SQ, BE, HGD, EAC). As to the method: Formalin-fixed sections of human esophageal specimens were deparaffinized, and antigen retrieval was performed using standard methods. Briefly, the sections were incubated in xylene for 3 min 3X, washed with 100% ethanol for 2 min 2X, and washed with 95% ethanol for 2 min 2X. Rehydration was performed by washing in dH2O for 5 min 2X. Antigen unmasking was performed by boiling the slides in 10 mM sodium citrate buffer with 0.05% Tween at pH 6.0, and then maintaining at sub-boiling temperature for 15 min. The slides were cooled for 30 min, and the sections were washed in dH2O for 3 min 3X and in PBS for 5 min. Blocking was performed with DAKO protein blocking agent (X0909, DAKO) for 1 hour at RT. The peptides were incubated at a concentration of 1 μM for 10 min at RT. The sections were washed in PBS for 3 min 3X, and incubated with 1:1000 dilution of monoclonal anti-FGFR2 (Abcam, ab58201) overnight at 4°C.
The sections were then washed in PBS for 5 min 3X. A 1:500 dilution of AF488-labeled secondary antibody (goat anti-mouse) was added to each section and incubated for 30 min at RT. The secondary antibody solution was removed by washing with PBS for 5 min 3X. The sections were then mounted with ProLong Gold reagent containing DAPI (Invitrogen). The mean fluorescence intensities from 3 boxes (dimensions of 30×30 μm^2) located completely within the surface epithelium of each specimen were measured. […] Serial sections were processed for routine histology (H&E), and were reviewed by an expert gastrointestinal pathologist (HDA).

Turning to SRRPASFRTARE [SRR^*-Cy5.5], the “mean T/B ratio, HGD and EAC versus BE and SQ” value (3 boxes of 30×30 μm^2, n = 28, 33, 22, 17 specimens of SQ, BE, HGD, EAC) is reported as “significantly higher”. The “mean fluorescence intensity, HGD and EAC versus BE” value (ANOVA, 4 means, log-transformed data, 3 boxes of 30×30 μm^2) is given as “significantly greater mean fluorescence intensity”. The “fluorescence intensity / staining, Barrett's esophagus (BE)” value (BE, n = 33 specimens, peptide 1 μM, 10 min at RT, antibody 1:1000 overnight at 4°C) was “minimal fluorescence intensity”. In addition, the “fluorescence intensity / staining, esophageal adenocarcinoma (EAC)” value (EAC, n = 17 specimens, peptide 1 μM, 10 min at RT, antibody 1:1000 overnight at 4°C) was “strong signal”. Moreover, the “fluorescence intensity / staining, high-grade dysplasia (HGD)” value (HGD, n = 22 specimens, peptide 1 μM, 10 min at RT, antibody 1:1000 overnight at 4°C) is given as “strong signal”. Further, where the note is “SQ, n = 28 specimens, peptide 1 μM, 10 min at RT, antibody 1:1000 overnight at 4°C”, the “fluorescence intensity / staining, squamous (SQ)” value was “minimal fluorescence intensity”.
